Laboratory results from publication PMC7112044 (Bioorganic Chemistry, 2008).
Where two headings read alike, the source gives them in different places.

How the values were obtained:
SARS 3CL^pro = SARS 3CL^pro (Severe acute respiratory syndrome coronavirus, UniProt P0C6X7); experiment: biochemical; format: biochemical, SARS-CoV
3CL^pro = 3CL^pro (Severe acute respiratory syndrome coronavirus, UniProt P0C6X7); format: binding, SARS-CoV
[1] = pH 7, read-out: Inhibition (100 μM)

“2-(5-Bromopyridin-3-yl)-2,2-difluoro-1-(furan-2- yl)ethanone [Compound 12c]” was tested, and the “Inhibition (100 μM)” value (SARS 3CL^pro; pH 7) was 21%.

For `O=C(c1cccs1)C(F)c1cccnc1` (centres unmarked) [Compound 6, 2-Fluoro-2-(pyridin-3-yl)-1-(thiophen-2-yl)ethanone], the “change of inhibition after 2 h preincubation with 3CL^pro” value (SARS 3CL^pro) was “no improved inhibition” and the inhibition at 100 µM (SARS 3CL^pro; [1]) was 10%.

For `O=C(c1cccs1)C(F)(F)c1cccnc1` [Compound 7, 2,2-difluoro-2-(pyridin-3-yl)-1-(thiophen-2-yl)ethanone], the “change of inhibition after 2 h preincubation with 3CL^pro” value (SARS 3CL^pro) was “no improved inhibition”, the “potency of inhibition relative to pyridinyl ester 1” value (SARS 3CL^pro) was 2- to 3 fold and the inhibition at 100 µM (SARS 3CL^pro; [1]) was 38%.

With `O=C(Cc1cncc(Cl)c1)c1ccco1` [Compound 11a, 2-(5-Chloropyridin-3-yl)-1-(furan-2-yl)ethanone] the inhibition at 100 µM (SARS 3CL^pro; read-out: Inhibition (100 μM)) was < 10%.

For `O=C(Cc1cccc(Cl)c1)c1ccco1` [Compound 11b, 2-(3-Chlorophenyl)-1-(furan-2-yl)ethanone], the inhibition at 100 µM (SARS 3CL^pro; read-out: Inhibition (100 μM)) was < 10%.

For `O=C(Cc1cncc(Br)c1)c1ccco1` [Compound 11c, 2-(5-Bromopyridin-3-yl)-1-(furan-2-yl)ethanone], the inhibition at 100 µM (SARS 3CL^pro; read-out: Inhibition (100 μM)) was < 10%.

For `O=C(Cc1cncc(Br)c1)c1ccc(-c2ccc(Cl)cc2)o1` [Compound 11d, 2-(5-Bromopyridin-3-yl)-1-(5-(4-chlorophenyl)furan-2-yl)ethanone], the “change of inhibitory activity after 2 h preincubation with 3CL^pro” value (“change of inhibitory activity” below) (SARS 3CL^pro) was “no improved inhibitory activity” and the “mass change in the major mass peak of 3CL^pro” value (shortened to “mass change”) (3CL^pro) was “no mass change”.

Molecule `O=C(c1ccco1)C(F)c1cncc(Cl)c1` (centres unmarked) [Compound 12a, 2-(5-Chloropyridin-3-yl)-2-fluoro-1-(furan-2-yl)ethanone] has an inhibition at 100 µM (SARS 3CL^pro; [1]) of 14%.

Work on `O=C(c1ccco1)C(F)c1cccc(Cl)c1` (centres unmarked) [Compound 12b, 2-(3-Chlorophenyl)-2-fluoro-1-(furan-2-yl)ethanone] yielded an inhibition at 100 µM (SARS 3CL^pro; [1]) of 15%.

`O=C(c1ccc(-c2ccc(Cl)cc2)o1)C(F)c1cncc(Br)c1` (centres unmarked) [Compound 12d, 2-(5-Bromopyridin-3-yl)-1-(5-(4-chlorophenyl)furan-2-yl)-2-fluoroethanone] was tested, and the “change of inhibitory activity” value (SARS 3CL^pro) was “no improved inhibitory activity” and the “mass change” value (3CL^pro) was “no mass change”.

With `O=C(c1ccco1)C(F)(F)c1cncc(Cl)c1` [Compound 13a, 2-(5-Chloropyridin-3-yl)-2,2-difluoro-1-(furan-2-yl)ethanone] the inhibition at 100 µM (SARS 3CL^pro; [1]) was 27%.

For `O=C(c1ccco1)C(F)(F)c1cccc(Cl)c1` [Compound 13b, 2-(3-Chlorophenyl)-2,2-difluoro-1-(furan-2-yl)ethanone], the inhibition at 100 µM (SARS 3CL^pro; [1]) was 13%.

`O=C(c1ccc(-c2ccc(Cl)cc2)o1)C(F)(F)c1cncc(Br)c1` [Compound 13d, 2-(5-Bromopyridin-3-yl)-1-(5-(4-chlorophenyl)furan-2-yl)-2,2-difluoroethanone] was tested, and the “change of inhibitory activity” value (SARS 3CL^pro) was “no improved inhibitory activity” and the “mass change” value (3CL^pro) was “no mass change”.

`O=C(Cc1cncc(Br)c1)c1cc(-c2ccc(Cl)cc2)on1` [Compound 28, 2-(5-Bromopyridin-3-yl)-1-(5-(4-chlorophenyl)isoxazol-3-yl)ethanone] gave an inhibition at 100 µM (SARS 3CL^pro; [1]) of 35%.
